Read-outs that look alike come from different tables or passages of the source.
What was measured:
[1] = system: Achromobacter spp. biofilm; experiment: Activity against biofilms; type: cell-based; conditions: tested up to 250 μg/mL
From the text: A dose response is also apparently associated with both compounds (FIG. 21).

Candida albicans = experiment: Antifungal broth microdilution (Example 13); type: cell-based; conditions: Candida albicans, 24 h, read-out: MIC0, C. albicans MMX 7445, FLU-R, VORI-R, complete inhibition
CYP = conditions: liver microsome (CYP) and hepatocyte
in vivo = experiment: in vivo; design: species or system beagle dogs; conditions: dog; for half-life: two-dose inhalation
Protocol: Once adequately conditioned to the restraint device and face-masks, the animals are individually exposed to the test article aerosols. Animals receive a single face-mask inhalation exposure in a ramp study design to test article aerosols for up to 60 min. Animal observations during and post exposure determine the tolerance of inhaled BisEDT aerosols.
Blood Collections and Bioanalytical Analysis: Blood are collected for pharmacokinetic (PK) analysis prior to exposure, then at 4 hr (±5 min) post exposure, and again on Day 1, Day 2, Day 7 (pre- and 4 hr (±5 min)-post exposure), Day 8, Day 9, Day 10, Day 11, Day 12, Day 13, and Day 14. A total of 0.25 mL is collected at each timepoint. No PK blood is collected from the vehicle control (Group 1) animals; only animals exposed to BisEDT have blood collected for PK analysis. Collected samples are flash frozen without processing for shipment to Medpace for bioanalytical analysis. Additional blood is collected from all animals in all groups for hematology (1 mL) and clinical chemistry (1 mL) at baseline, Day 7 (pre-exposure), and again at euthanasia. Blood (2-2 mL) is collected from all animals at necropsy for coagulation analysis (d-Dimer, fibrinogen, PT, and PTT).
Blood for pharmacokinetic analysis (0.25 mL) is collected into tubes containing K3EDTA as an anticoagulant.
The left lobe of the lung is used for histopathology and will be fixed in 10% NBF. […] Liver, spleen, kidney, brain, heart, and respiratory tract are collected and fixed for potential, future analysis.
A two-dose inhalation PK study in dogs was performed covering four doses from 50 μg/kg to 450 μg/kg lung deposited dose. […] The systemic half-life is approximately 4 days, and the lung tissue half-life is approximately 7 days.

[2] = Animals 4001 and 4004, Day 14 (7 days after last dose)

| SMILES | reduction in viable biofilm cells [1] [log] | MIC (Candida albicans) [µg/mL] | effect on liver cell metabolism (inhibition or induction of standard substrates) (CYP) | half-life (in vivo; beagle, in vivo, inhaled or intranasal, read-out: lung tissue half-life (converted)) [days] | half-life (in vivo; beagle, in vivo, inhaled or intranasal, read-out: systemic half-life (converted)) [days] | Tmax (in vivo; beagle, in vivo, inhaled or intranasal, whole blood, after both doses) [h] | average blood level (in vivo; [2]) | lung tissue level (in vivo; [2]) |
| --- | --- | --- | --- | --- | --- | --- | --- | --- |
| CC(S)C(C)S.[Bi] (centres unmarked) [BisBDT, bismuth-2,3-butanedithiol] | 5 | 2 |  |  |  |  |  |  |
| C1C[S][Bi]([S]CC[S][Bi]2[S]CC[S]2)[S]1 [BisEDT, Bismuth-1,2-ethanedithiol] |  |  | no significant effect | ~7 | ~4 | ~24 | less than 20 ng/mL | over 7,000 ng/g |
